Source: patent US10238631B2, “Sesquiterpene derivatives and their use in inflammation or cancer treatment” (Academia Sinica, priority 2014, dated 2019)

What was measured:
[1] = tested on: A375 (BRAF mutation); assay: MTT cell viability assay, A375 melanoma; assay type: cell-based, human; settings: Homo sapiens, A-375, 24 h, 24 h, MTT; read-out: IC50 on cell viability, A375 (BRAF mutation)
Summary of the method: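 A375 cells were seeded at 2×10^3 to 1×10^4 per well overnight and then exposed to compounds for 24 h to 72 h. Viability was measured by MTT absorbance at OD570 relative to 0.5% DMSO vehicle (100%), and IC50 was derived from it. Combination with PLX4032 was scored by combination index.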

[2] = tested on: B16-F10 (NRAS mutation); assay: MTT cell viability assay, B16-F10 melanoma; assay type: cell-based; settings: Mus musculus, B16-F10, 24 h, 24 h, read-out: IC50 on cell viability, B16-F10 (NRAS mutation)
Summary of the method: (§1)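 Overnight-seeded cells (2×10^3–1×10^4/well) → compound 24–72 h → MTT, OD570; % viable = treated/vehicle ×100, vehicle 0.5% DMSO.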

[3] = tested on: Melanocyte (Normal cells); assay: MTT cell viability assay, normal melanocytes; assay type: cell-based, human; settings: Homo sapiens, Melanocyte, 24 h
Summary of the method: as §1

[4] = tested on: TS/A (ER+, Her2−) murine mammary cancer cells; assay: MTT cell viability assay, TS/A cells; assay type: cell-based; settings: Mus musculus, 24 h, read-out: IC50 on cell viability, TS/A (ER+, Her2−)
Summary of the method: (§2)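 Seed 2×10^3 to 1×10^4 cells/well, overnight. Treat with compounds 24 h to 72 h. Add MTT, read OD570. Express survival relative to 0.5% DMSO vehicle (100%).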

[5] = tested on: HTB-68 (NRAS mutation); assay: MTT cell viability assay, HTB-68 melanoma; assay type: cell-based, human; settings: Homo sapiens, 24 h
Summary of the method: as §1

[6] = tested on: MCF-7 (ER+, Her2−) human breast cancer cells; assay: MTT cell viability assay, MCF-7 cells; assay type: cell-based; settings: MCF7, 24 h, read-out: IC50 on cell viability, MCF-7 (ER+, Her2−)
Summary of the method: as §2

[7] = tested on: RAW264.7 (normal macrophage); assay: MTT cell viability assay, RAW264.7 macrophages; assay type: cell-based, mouse; settings: Mus musculus, RAW264.7, 24 h
Summary of the method: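 RAW264.7 macrophages (2×10^5 cells/well) pretreated with compounds 1 h, then incubated 24 h with or without 100 ng/μL LPS. Viability by MTT colorimetric assay run in parallel with Griess nitrite measurement.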

[8] = tested on: M10 normal mammary epithelial cells; assay: MTT cell viability assay, M10 normal cells; assay type: cell-based, human; settings: Homo sapiens, Epithelial cell, 24 h
Summary of the method: as §2

[9] = tested on: MDA-MB-231 (ER−, PR−, Her2−) human breast cancer cells; assay: MTT cell viability assay, MDA-MB-231 cells; assay type: cell-based; settings: for IC50: Homo sapiens, MDA-MB-231, 24 h, read-out: IC50 on cell viability, MDA-MB-231 (ER−, PR−, Her2−)
Summary of the method: as §2

[10] = tested on: LPS-induced nitric oxide (NO) production in RAW 264.7 cells; assay: Nitric oxide production in LPS-stimulated macrophages (Griess); assay type: cell-based, mouse; settings: Mus musculus; LPS-stimulated RAW264.7, nitrite 24 h after LPS
Summary of the method: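 RAW 264.7 macrophages (2×10^5 cells/well) were pretreated with compound for 1 h and then stimulated with 100 ng/μL LPS for 24 h. NO was measured as nitrite in the medium by the Griess reaction. Viability was checked in parallel by MTT.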

[11] = tested on: MeWo (No NRAS or BRAF mutation); assay: MTT cell viability assay, MeWo melanoma; assay type: cell-based, human; settings: Homo sapiens, MeWo, 24 h
Summary of the method: as §1

[12] = tested on: melanoma cell lines B16-F10, MeWo, A375, A2058, HTB-68; assay: MTT cell viability assay, all melanoma cell lines; assay type: cell-based; settings: 24 h, read-out: IC50 values over all types of melanoma cell lines
Description: Normal or cancer cells (2×10^3 to 1×10^4 cells/well) were seeded in 96-well plate for overnight and treated with different compounds for 24 h to 72 h. Cells growth were determined by MTT-based colorimetric assays according to. Viability of the test cells treated with vehicle (0.5% DMSO) only was defined as 100% viable. Survival of cells after treatment with DETDs was calculated using the following formula: viable cell number (%)=OD570 (treated cell culture)/OD570 (vehicle control)×100.
Several genes are involved in melanoma development and pathology; specifically, mutation in V-raf murine sarcoma viral oncogene homolog B1 (B-RAF) occurs approximately 50-60% and in neuroblastoma RAS viral oncogene homolog (N-RAS) occurs about 30% of malignant melanomas. A spectrum of wild-type or mutated melanoma cell lines including B16-F10, MeWo, A375, A2058, HTB-68, and melanocyte were used to study anti-melanoma cell proliferation activity of parental phytocompound DET and newly synthesized DETDs.

[13] = tested on: A2058 (BRAF mutation); assay: MTT cell viability assay, A2058 melanoma; assay type: cell-based, human; settings: Homo sapiens, A2058, 24 h
Summary of the method: as §1

[14] = tested on: MDA-MB-231 cell invasion; assay: Boyden chamber (Matrigel) invasion assay; assay type: cell-based, human; settings: 24 h
Description: (§3) To test the anti-migratory and anti-invasive effect of DET. DETD-35 and PTX. Boyden chambers assay was carried out. The lower well of the chamber (6.5 mm diameter, […]; Costar. Cambridge, Mass., USA) was added 10% fetal bovine serum (FBS) as a chemoattractant and filled with DMEM culture medium containing vehicle (DMSO, 0.05%), DET (2.5 and 4 μM). DETD-35 (1.25 and 2.5 μM), or PTX (2.5 and 4 μM). MDA-MB-231 cells were placed into the upper chamber (5×10^4 cells per insert) with the medium containing 0.1% FBS. After 24 h incubation at 37° C. in a 5% CO2 atmosphere, non-migrating cells were scraped from the upper surface of the membrane using a cotton swab, and the migrated cells remaining in the well were fixed and stained with DAPI solution (4,6-diamidino-2-phenylindole, 1 μg/ml). The migrating cells were counted in three fields at 20× original magnifications by inverted fluorescence microscopy. To test the anti-invasive effect of the compounds, 8-μm filters were pre-coating with Matrigel (30 μg per filter) and incubated at 37° C. for 2 h, then followed the protocol of migration assay descried about.

[15] = tested on: MDA-MB-231 lung metastasis; assay: Lung metastasis of MDA-MB-231 cells in SCID mice; assay type: in vivo, mouse; settings: post-treatment, 5 mg/kg i.p. every three days
Description: Female SCID mice (5 weeks old, average body weight 19.59±1.26 g) were assigned to 8 groups: PIX group (5 mg/kg paclitaxel), DETD-35-2 group (2 mg/kg DETD-35), DETD-35-10 group (10 mg/kg DETD-35). PTX-5+DETD-35-2 group (5 mg/kg paclitaxel and 2 mg/kg DETD-35 administration alternatively for eleven doses of paclitaxel (PTX) and ten doses of DETD-35 in total), tumor (vehicle) group (5% DMSO), and sham group (5% DMSO). Pre-DETD-35-10 group was the mice administered 10 mg/kg DETD-35 every two days for three doses before the i.v. injection of 1×10^6 MDA-MB-231 tumor cells at day 0. All other drug or compounds were administered i.p. every three days starting from day 1. At the end of experiment (day 71), the test mice were sacrificed by cervical dislocation. The lung, liver, kidney, and spleen organs were removed and recorded weights and calculated for organ index (% of organ weight/body weight). The number of tumor colonies on lungs of test mice was counted.

[16] = tested on: MDA-MB-231 cell migration; assay: Boyden chamber migration assay; assay type: cell-based, human; settings: 24 h
Description: as §3

[17] = higher concentrations (DET 4 μM, DETD-35 2.5 μM, PTX 4 μM)
[18] = lower concentrations (DET 2.5 μM, DETD-35 1.25 μM, PTX 2.5 μM)

| SMILES | IC50 [1] | IC50 [2] | IC50 [3] | IC50 [4] | IC50 [5] | IC50 [6] | IC50 [7] | IC50 [8] | IC50 [9] | IC50 [10] | IC50 [11] | IC50 [12] | IC50 [13] | inhibition of cell invasion [14, 17] | inhibition of cell invasion [14, 18] | reduction of number of tumor foci in lungs vs tumor control [15] | reduction of cell migration vs vehicle control [16, 17] | suppression of cell migration vs vehicle control [16, 18] | IC60 on MDA-MB-231 cells ([9]; 24 h) |
| --- | --- | --- | --- | --- | --- | --- | --- | --- | --- | --- | --- | --- | --- | --- | --- | --- | --- | --- | --- |
| C=C1C(=O)OC2CC3=C[C@@H](C/C(C)=C/C(OC(=O)c4ccc(Br)cc4)[C@H]12)OC3=O (stereo partly drawn) [DETD-34] | 3.1 µM | 2 µM | > 10 µM | 3 µM | 6.8 µM | 6.1 µM | > 10 µM | > 7.5 µM | 2.2 µM | 2.3 µM | 7.3 µM | 1.6 to 9.9 µM | 4.4 µM |  |  |  |  |  |  |
| CC(=O)O[C@H]1C(=O)[C@@]2(C)[C@H]([C@H](OC(=O)c3ccccc3)[C@]3(O)C[C@H](OC(=O)[C@H](O)[C@@H](NC(=O)c4ccccc4)c4ccccc4)C(C)=C1C3(C)C)[C@]1(OC(C)=O)CO[C@@H]1C[C@@H]2O [PTX, paclitaxel] |  |  |  |  |  |  |  |  |  |  |  |  |  | 90% | 85% | 62% | 88% | 87% | 0.0238 µM |
| C=C1C(=O)OC2CC3=C[C@@H](C/C(C)=C/C(OC(=O)Cc4cccc5cc(OC)ccc45)[C@H]12)OC3=O (stereo partly drawn) [DETD-45] | 1.7 µM | 4.5 µM | > 10 µM | 2 µM | 3.5 µM | 3.1 µM | > 10 µM | 4.7 µM | 3.1 µM | 2.8 µM | 4.5 µM | 1.6 to 9.9 µM | 3.6 µM |  |  |  |  |  |  |
| C=C1C(=O)OC2CC3=C[C@@H](C/C(C)=C/[C@@H](OC(=O)[C@@H](OC)c4ccc5ccccc5c4)[C@H]12)OC3=O (stereo partly drawn) [DETD-56] | 2.5 µM | 5.3 µM | > 10 µM | 1.9 µM | 4.5 µM | 4.5 µM | > 10 µM | > 7.5 µM | 4.2 µM | 3 µM | 7.6 µM | 1.6 to 9.9 µM | 5.2 µM |  |  |  |  |  |  |
